{"source": "ChEMBL document CHEMBL4354805", "about": "“Discovery of MK-8719, a Potent O-GlcNAcase Inhibitor as a Potential Treatment for Tauopathies” (J Med Chem, 2019)", "key": {"[1]": {"target": "IKr (KCNH2) (Homo sapiens, UniProt Q12809)", "sequence (Q12809 whole entry)": "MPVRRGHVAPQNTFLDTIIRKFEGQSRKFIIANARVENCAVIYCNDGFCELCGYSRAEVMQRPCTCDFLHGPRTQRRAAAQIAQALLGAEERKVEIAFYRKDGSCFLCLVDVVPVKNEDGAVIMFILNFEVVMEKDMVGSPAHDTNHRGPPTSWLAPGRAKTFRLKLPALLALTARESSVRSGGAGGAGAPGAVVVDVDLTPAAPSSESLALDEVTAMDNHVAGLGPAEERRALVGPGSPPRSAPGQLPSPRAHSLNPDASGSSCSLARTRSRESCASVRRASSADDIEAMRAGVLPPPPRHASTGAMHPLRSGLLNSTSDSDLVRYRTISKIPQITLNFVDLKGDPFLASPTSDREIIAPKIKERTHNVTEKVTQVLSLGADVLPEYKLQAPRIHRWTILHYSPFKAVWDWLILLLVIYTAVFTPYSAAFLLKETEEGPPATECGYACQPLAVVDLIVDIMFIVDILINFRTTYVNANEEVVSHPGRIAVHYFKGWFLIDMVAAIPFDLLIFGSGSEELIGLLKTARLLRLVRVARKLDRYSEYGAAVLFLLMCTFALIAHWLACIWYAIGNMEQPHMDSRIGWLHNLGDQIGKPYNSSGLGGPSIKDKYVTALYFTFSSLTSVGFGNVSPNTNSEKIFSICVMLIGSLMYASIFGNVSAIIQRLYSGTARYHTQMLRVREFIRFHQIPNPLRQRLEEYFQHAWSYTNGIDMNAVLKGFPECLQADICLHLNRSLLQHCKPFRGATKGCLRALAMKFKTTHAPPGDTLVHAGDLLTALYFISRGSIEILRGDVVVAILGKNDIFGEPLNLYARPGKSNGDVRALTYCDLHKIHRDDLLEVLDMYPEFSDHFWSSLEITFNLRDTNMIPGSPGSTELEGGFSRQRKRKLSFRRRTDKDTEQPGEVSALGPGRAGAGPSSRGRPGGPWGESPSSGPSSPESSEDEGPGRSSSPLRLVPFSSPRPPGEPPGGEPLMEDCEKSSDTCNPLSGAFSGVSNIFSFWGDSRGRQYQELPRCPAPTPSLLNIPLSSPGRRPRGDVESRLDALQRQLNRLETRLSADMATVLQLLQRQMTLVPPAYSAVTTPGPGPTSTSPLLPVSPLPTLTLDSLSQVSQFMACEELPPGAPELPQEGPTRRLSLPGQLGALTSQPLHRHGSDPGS", "experiment": "Inhibition of IKr (unknown origin) at 30 uM"}, "[2]": {"experiment": "Clearance in rhesus monkey at 1 mg/kg, iv", "type": "ADME, organism-based, Macaca mulatta", "settings": "in vivo"}, "[3]": {"system": "Rattus norvegicus", "experiment": "Elevation of O-protein in rat brain at 3 mg/kg, po measured after 24 hrs relative to control", "type": "functional"}, "[4]": {"target": "T1, Beta-hexosaminidase subunit beta (Homo sapiens, UniProt P07686)", "T1 sequence (P07686 whole entry)": "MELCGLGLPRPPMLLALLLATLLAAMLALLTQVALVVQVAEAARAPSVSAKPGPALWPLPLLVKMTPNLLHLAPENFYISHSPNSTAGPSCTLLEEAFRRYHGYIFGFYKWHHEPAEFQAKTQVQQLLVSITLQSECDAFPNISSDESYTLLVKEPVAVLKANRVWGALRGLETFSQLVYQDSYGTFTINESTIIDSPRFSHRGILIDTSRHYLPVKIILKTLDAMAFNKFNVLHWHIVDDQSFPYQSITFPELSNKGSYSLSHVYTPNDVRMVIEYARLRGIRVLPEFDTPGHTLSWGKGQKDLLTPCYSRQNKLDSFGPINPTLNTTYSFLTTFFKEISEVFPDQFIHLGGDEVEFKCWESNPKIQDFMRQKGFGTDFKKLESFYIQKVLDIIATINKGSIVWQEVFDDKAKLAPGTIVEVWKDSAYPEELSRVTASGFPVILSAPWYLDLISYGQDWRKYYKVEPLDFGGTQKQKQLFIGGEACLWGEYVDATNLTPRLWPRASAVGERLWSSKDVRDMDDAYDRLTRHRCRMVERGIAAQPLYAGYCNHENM", "experiment": "Inhibition of human beta hexosaminidase assessed as inhibitory constant using 4-methylumbelliferyl N-acetyl-beta-D-glucosaminide dihydrate as substrate measured every 60 sec for 45 mins by fluorescence spectrophotometry"}}}
{"smiles": "CCNC1=N[C@@H]2[C@@H](O)[C@H](O)[C@@H](C(F)F)O[C@@H]2S1", "values": [{"measurement": "inhibition at 30 µM", "setting": "[1]", "result": "< 50", "unit": "%"}, {"measurement": "clearance", "setting": "[2]", "result": 26.7, "unit": "mL/min/kg"}, {"measurement": "fold change (FC)", "setting": "[3]", "result": 2.17}, {"measurement": "Ki", "setting": "[4]", "result": "> 10", "unit": "µM"}]}
